Patent US11364231B2, “Methods of treating radiation induced gastrointestinal syndrome (RIGS) and related disease states using YEL002/BCN057” (priority 2017, dated 2022)
Entries after “also recorded” stand apart in the source; their conditions may differ.

How the values were obtained:
WNT target genes = test: qPCR of WNT target genes in irradiated human colonic organoids; format: cell-based; conditions: epithelial cells from irradiated human colonic organoids treated with BCN057
Protocol: (B-C, Data was the average of 3 human subjects).
To examine the effect of BCN057 on human intestinal, epithelial tissue surgical specimen collected from normal colon at least 10 cm apart from malignant site was used to develop ex vivo crypt organoid. At a dose level of 8 Gy all the budding crypts have been disappeared in the organoids. […] The effect of BCN057 on mRNA level of β-catenin target genes in organoids was also evaluated.

[1] = Solubility in aqueous formulations; format: physicochemical
Protocol: In another embodiment formulation for intravenous, subcutaneous and oral delivery of therapeutic levels of Yel002/BCN057 were developed comprising 30 wt % Captisol (SBE-beta-CD) and 100 mM MSA at pH 4.1 or higher (adjusted with 1.0 N NaOH).

[2] = tested on: intestinal epithelial integrity; test: FITC-dextran permeability assay; format: in vivo, mice
Protocol: Since dextran is unable to cross the GI epithelia unless it is compromised, dextran in the blood is a good indicator of epithelial damage. Blood FITC-dextran levels were measured at 4 h after gavage.
At day 5 post mice exposed to ABI and/or treated with BCN057 were gavaged with 0.6 mg g-1 body weight of a FITC-dextran solution ([…] size, Sigma). In all, four hrs. after gavage mice were killed and serum was obtained with cardiac puncture. Samples were measured in a 96-well plate using a Flexstation ii 384 multiwell fluorometer (Molecular Devices). A standard curve was constructed using mouse serum having increasing amounts of FITC-dextran to determine the serum levels of FITC-dextran in different treatment groups.

[3] = tested on: nuclear β-catenin in crypt epithelial cells; test: β-Catenin immunohistochemistry of mouse jejunum; format: in vivo, mice; conditions: BCN057 at 24 hrs post AIR vs irradiated untreated animals
Protocol: The effect of BCN057 was analyzed in crypt epithelial β-catenin activation. […] Nuclear β-catenin positive cells were primarily observed in crypt bottom which is also location for ISCs indicating activation of WNT-β-catenin signaling in ISCs.
β-Catenin immunohistochemistry was performed in paraffin-embedded sections of mouse jejunum (56). Before immunostaining antigen retrieval was performed by heating slides in […] at 100° C. for 20 min in a microwave oven at 500 W using antigen retrieval solution (10 mM Tris and 1 mM EDTA, pH 9.0). Non-specific antibody binding was blocked for 20 min. by incubation with 0.05% w/v BSA in PBS. Tissue was stained using the anti-β-catenin antibody (1:100 dilution; BD Transduction Laboratories, Franklin Lakes, N.J.; #610154) at room temperature for 2 hr followed by staining with horseradish peroxidase-conjugated Anti-Mouse Antibody (Dako, Denmark) at room temperature for 1 hr. Peroxidase activity was detected by adding DAB substrate. Nucleus was counter-stained with haematoxylin (blue). β-Catenin-positive nucleus (stained dark brown) was calculated from 15 crypts per field, 5 fields per mice.

In the case of `COc1ccc2cc(-c3nc4ccc(C)cn4c3NCc3ccco3)c(=O)[nH]c2c1` [BCN057, 3-(3((furan-2-ylmethyl)ammo)-6-methylimidazo[1,2-a]pyridine-2-yl)-6-methoxyquinolin-2(1H)-one], the “mRNA level of WNT / β-catenin target genes” value (WNT target genes) is reported as “several fold increase; also recorded: increases”, the solubility ([1]; 30 wt % Captisol (SBE-beta-CD) and 100 mM MSA, at up to pH 4.1 or higher) is reported as “excellent solubility” and the “solubility in aqueous solution” value ([1]; physiologically compatible pHs, 100 mM MSA/10% PVP, 100 mM MSA/2% benzyl alcohol/2% NMP, 100 mM MSA/10% ethanol/1% Poloxamer 188) is reported as “solubalized”. The “serum FITC-dextran level” value ([2]; irradiated (AIR) mice treated with BCN057 vs irradiated untreated control, 4 h after gavage) was “significantly reduced; also recorded: lower serum dextran level”, the serum dextran level ([2]; unirradiated BCN057 treated mice vs irradiated control) was “lower serum dextran level” and the “nuclear β-catenin positive cells” value [3] was “significant increase; also recorded: more nuclear β-catenin staining”.
